Measured values published in patent publication US20230365647A1 (priority 2020, published 2023).
Read-outs that look alike come from different tables or passages of the source. Where no end group is shown, it is not given here.

Assays:
PLY [1] = molecular target: T1, PLY (Streptococcus pneumoniae serotype 4, UniProt P0C2J9); settings: for inhibition of PLY-induced hemolysis: human
LLO [2] = molecular target: T2, LLO (Listeria monocytogenes serotype 4a, UniProt B8DGM3); settings: for inhibition of LLO-induced hemolysis: human
PLY [3] = molecular target: T1, PLY; assay type: binding
[4] = mouse, in vivo
LLO [5] = molecular target: T2, LLO; assay type: cell-based
S. pneumoniae T4 [6] = test system: S. pneumoniae T4; parameters: species or system zebrafish (Danio renio); settings: in vivo
[7] = test system: pneumococci of type 4 or type 2; assay type: cell-based, Streptococcus pneumoniae
PLY [8] = molecular target: T1, PLY; assay type: cell-based
S. pneumoniae T4R = assay type: cell-based
PLY [9] = molecular target: T1, PLY; assay type: cell-based; remark: listed apart in the source
[10] = test system: pneumococci, type 2 (D39) or type 4 (T4); assay type: cell-based, Streptococcus pneumoniae
PLY [11] = molecular target: T1, PLY; assay type: cell-based; remark: listed apart in the source
[12] = test system: pneumococcal strain T4 (TIGR4 of serotype 4); assay type: binding
[13] = test system: wild-type pneumococci T4 (TIGR4); assay type: cell-based
PLY [14] = molecular target: T1, PLY; assay type: cell-based; remark: listed apart in the source
S. pneumoniae T4 [15] = assay type: cell-based, Streptococcus pneumoniae
LLO [16] = molecular target: T2, LLO; assay type: binding
[17] = test system: human THP-1 derived macrophages; assay type: cell-based

DCTSAGRSDGWLW [CP1]
PLY-induced hemolysis, residual red blood cell pellet (PLY [1]): Complete hemolysis
LLO-induced hemolysis, residual red blood cell pellet (LLO [2]): Complete hemolysis
binding to PLY (ELISA) (PLY [3]): only background levels of binding

FTWSDGSPVSYEN [P2, FTWSDGSPVSYEN]
clinical symptoms [4]: did not develop any clinical symptoms
toxicity by lung histology analysis [4]: not toxic
inhibition of PLY-induced hemolysis (PLY [1]): up to 50%
inhibition of LLO-induced hemolysis (LLO [2]): ~35%

LVGNIEQNEHSVI [CP2]
cell death of macrophages induced by LLO (LDH release) (LLO [5]): no significant effect
survival of infected zebrafish embryos (S. pneumoniae T4 [6]): did not show any significant effect
intracellular bacteria in DCs (fluorescence microscopy) [7]: not
release of IL-8 in lung tissue model (PLY [8]): not
release of TNF-α in lung tissue model (PLY [8]): not
co-localization of intracellular T4R with autophagy marker LC3B (S. pneumoniae T4R): did not promote co-localization
LDH release into the supernatant of lung tissue model (PLY [9]): did not show any significant reduction
number of intracellular bacteria in DCs (CFU) [10]: did not show any significant difference
protection of THP-1 macrophages from PLY cytolysis (live/dead stain) (PLY [11]): not
PLY-induced hemolysis, residual red blood cell pellet (PLY [1]): Complete hemolysis
LLO-induced hemolysis, residual red blood cell pellet (LLO [2]): Complete hemolysis
binding of FITC-labelled peptide to PLY-producing strain T4 [12]: did not show any binding
binding to PLY (ELISA) (PLY [3]): only background levels of binding
number of invading bacteria in lung epithelial model (CFU) [13]: not
cell death of macrophages induced by PLY (LDH release) (PLY [14]): no significant effect
hemolytic activity of pneumococcal strain T4 (S. pneumoniae T4 [15]): no effect

YENWAYGEPNNYQ [P3, YENWAYGEPNNYQ]
cell death of macrophages induced by LLO (LDH release) (LLO [5]; 18 h): significantly reduced cell death
binding to LLO (ELISA) (LLO [16]): bound dose-dependently
release of IL-8 [17]: significantly reduced
release of IL-12 [17]: significantly reduced
release of TNF-α [17]: significantly reduced
PLY-induced hemolysis, increasing concentrations of the peptides (PLY [1]): dose-dependently inhibited
inhibition of PLY-induced hemolysis (PLY [1]): up to 50%
inhibition of LLO-induced hemolysis (LLO [2]): ~35%
binding to PLY (ELISA) (PLY [3]): bind dose-dependently
cell death of macrophages induced by PLY (LDH release) (PLY [14]; 18 h): significantly reduced cell death
